Measurements: ChEMBL document CHEMBL5291721, “A preclinical secondary pharmacology resource illuminates target-adverse drug reaction associations of marketed drugs” (Nat Commun, 2023)

Experiments:
Cannabinoid receptor 1 = Cannabinoid receptor 1 (Homo sapiens, UniProt P21554); type: functional, cell-based
[1] = target: T1, Amine oxidase [flavin-containing] A (Homo sapiens, UniProt P21397); type: functional
T1 sequence (P21397 whole entry): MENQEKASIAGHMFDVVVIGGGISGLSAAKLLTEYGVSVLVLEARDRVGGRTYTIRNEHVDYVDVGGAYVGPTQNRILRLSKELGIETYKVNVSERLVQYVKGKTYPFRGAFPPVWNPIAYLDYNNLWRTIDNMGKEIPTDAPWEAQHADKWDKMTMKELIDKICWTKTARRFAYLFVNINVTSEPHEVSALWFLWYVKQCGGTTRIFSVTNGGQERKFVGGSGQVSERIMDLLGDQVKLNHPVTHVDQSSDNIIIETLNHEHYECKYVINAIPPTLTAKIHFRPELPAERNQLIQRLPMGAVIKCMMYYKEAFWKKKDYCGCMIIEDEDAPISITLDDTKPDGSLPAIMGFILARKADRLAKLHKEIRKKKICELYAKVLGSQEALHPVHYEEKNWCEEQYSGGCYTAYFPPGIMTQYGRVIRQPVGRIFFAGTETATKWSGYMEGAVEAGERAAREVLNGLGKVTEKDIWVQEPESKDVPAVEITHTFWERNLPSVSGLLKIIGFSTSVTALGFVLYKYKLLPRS

[2] = target: cGMP-inhibited 3',5'-cyclic phosphodiesterase 3A (Homo sapiens, UniProt Q14432); type: functional
Histamine H1 receptor = Histamine H1 receptor (Homo sapiens, UniProt P35367)
Glucocorticoid receptor = target: T2, Glucocorticoid receptor (Homo sapiens, UniProt P04150)
T2 sequence (P04150 whole entry): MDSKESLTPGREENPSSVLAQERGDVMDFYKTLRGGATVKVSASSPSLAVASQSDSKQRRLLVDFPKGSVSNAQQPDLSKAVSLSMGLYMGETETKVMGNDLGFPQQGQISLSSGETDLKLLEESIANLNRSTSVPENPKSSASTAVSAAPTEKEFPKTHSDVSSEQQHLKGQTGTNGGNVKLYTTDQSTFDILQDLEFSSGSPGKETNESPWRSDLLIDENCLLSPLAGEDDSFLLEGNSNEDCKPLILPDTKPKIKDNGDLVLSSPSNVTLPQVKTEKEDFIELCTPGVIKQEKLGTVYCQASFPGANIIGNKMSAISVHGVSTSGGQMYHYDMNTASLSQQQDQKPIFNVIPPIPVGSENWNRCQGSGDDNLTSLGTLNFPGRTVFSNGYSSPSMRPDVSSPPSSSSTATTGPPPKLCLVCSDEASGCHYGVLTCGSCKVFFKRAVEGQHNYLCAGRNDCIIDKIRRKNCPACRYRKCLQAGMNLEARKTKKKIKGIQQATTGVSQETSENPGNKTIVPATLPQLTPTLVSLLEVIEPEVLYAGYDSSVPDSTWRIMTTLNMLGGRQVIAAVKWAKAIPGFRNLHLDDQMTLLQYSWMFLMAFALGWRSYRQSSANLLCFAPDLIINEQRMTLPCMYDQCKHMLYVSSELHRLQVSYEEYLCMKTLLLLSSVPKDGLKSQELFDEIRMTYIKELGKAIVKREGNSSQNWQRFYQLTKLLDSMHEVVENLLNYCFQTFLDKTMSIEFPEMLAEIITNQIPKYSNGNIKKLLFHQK

Endothelin-1 receptor = target: T3, Endothelin-1 receptor (Homo sapiens, UniProt P25101)
T3 sequence (P25101 whole entry): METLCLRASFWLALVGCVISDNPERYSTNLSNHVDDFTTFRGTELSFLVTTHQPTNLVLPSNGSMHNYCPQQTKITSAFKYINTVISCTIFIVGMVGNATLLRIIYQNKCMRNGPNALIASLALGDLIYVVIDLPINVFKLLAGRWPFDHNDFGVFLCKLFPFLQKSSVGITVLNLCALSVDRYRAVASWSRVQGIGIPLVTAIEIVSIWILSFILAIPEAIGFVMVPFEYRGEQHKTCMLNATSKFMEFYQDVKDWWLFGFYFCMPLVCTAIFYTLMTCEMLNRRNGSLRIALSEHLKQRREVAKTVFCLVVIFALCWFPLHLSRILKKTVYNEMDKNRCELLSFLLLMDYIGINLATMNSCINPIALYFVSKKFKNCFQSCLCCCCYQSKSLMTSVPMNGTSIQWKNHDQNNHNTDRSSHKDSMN

Progesterone receptor = target: T4, Progesterone receptor (Homo sapiens, UniProt P06401); type: functional
T4 sequence (P06401 whole entry): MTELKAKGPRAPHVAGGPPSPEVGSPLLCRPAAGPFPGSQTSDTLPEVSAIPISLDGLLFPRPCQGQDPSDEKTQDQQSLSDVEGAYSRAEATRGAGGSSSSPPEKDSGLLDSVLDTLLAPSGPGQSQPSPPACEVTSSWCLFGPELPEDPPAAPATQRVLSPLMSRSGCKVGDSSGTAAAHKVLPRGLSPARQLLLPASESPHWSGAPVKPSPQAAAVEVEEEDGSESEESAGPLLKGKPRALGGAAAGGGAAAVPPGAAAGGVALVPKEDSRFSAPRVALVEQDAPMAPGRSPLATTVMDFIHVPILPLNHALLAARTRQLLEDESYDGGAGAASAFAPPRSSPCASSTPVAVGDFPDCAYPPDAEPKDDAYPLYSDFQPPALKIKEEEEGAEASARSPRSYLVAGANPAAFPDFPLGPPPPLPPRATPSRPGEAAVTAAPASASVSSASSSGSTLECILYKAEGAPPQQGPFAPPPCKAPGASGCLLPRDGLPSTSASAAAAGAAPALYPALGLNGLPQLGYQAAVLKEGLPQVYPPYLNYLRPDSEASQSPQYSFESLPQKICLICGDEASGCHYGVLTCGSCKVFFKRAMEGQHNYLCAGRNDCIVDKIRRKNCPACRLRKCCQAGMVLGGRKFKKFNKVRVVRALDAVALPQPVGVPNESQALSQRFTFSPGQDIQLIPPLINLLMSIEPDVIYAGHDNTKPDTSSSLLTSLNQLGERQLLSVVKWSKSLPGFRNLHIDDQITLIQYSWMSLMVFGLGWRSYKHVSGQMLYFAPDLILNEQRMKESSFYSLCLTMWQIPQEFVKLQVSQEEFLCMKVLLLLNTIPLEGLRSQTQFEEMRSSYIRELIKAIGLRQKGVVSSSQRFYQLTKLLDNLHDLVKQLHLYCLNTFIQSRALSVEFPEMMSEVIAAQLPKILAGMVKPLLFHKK
Note: assay procedure not described here.

Sequence of Histamine H1 receptor (P35367 whole entry): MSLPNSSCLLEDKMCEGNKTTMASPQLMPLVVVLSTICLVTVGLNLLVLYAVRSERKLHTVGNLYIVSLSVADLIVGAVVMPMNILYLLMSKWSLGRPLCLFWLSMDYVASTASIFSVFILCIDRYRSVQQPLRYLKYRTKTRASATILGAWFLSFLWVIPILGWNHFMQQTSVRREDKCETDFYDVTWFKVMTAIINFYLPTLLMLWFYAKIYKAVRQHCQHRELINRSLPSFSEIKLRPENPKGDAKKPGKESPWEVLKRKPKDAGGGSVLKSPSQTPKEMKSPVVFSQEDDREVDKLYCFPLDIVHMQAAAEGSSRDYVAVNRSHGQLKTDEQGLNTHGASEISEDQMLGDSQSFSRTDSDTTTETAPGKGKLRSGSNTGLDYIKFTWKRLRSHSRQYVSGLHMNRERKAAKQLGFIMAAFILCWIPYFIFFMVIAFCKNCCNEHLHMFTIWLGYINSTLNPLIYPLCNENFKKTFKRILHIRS
Sequence of cGMP-inhibited 3',5'-cyclic phosphodiesterase 3A (Q14432 whole entry): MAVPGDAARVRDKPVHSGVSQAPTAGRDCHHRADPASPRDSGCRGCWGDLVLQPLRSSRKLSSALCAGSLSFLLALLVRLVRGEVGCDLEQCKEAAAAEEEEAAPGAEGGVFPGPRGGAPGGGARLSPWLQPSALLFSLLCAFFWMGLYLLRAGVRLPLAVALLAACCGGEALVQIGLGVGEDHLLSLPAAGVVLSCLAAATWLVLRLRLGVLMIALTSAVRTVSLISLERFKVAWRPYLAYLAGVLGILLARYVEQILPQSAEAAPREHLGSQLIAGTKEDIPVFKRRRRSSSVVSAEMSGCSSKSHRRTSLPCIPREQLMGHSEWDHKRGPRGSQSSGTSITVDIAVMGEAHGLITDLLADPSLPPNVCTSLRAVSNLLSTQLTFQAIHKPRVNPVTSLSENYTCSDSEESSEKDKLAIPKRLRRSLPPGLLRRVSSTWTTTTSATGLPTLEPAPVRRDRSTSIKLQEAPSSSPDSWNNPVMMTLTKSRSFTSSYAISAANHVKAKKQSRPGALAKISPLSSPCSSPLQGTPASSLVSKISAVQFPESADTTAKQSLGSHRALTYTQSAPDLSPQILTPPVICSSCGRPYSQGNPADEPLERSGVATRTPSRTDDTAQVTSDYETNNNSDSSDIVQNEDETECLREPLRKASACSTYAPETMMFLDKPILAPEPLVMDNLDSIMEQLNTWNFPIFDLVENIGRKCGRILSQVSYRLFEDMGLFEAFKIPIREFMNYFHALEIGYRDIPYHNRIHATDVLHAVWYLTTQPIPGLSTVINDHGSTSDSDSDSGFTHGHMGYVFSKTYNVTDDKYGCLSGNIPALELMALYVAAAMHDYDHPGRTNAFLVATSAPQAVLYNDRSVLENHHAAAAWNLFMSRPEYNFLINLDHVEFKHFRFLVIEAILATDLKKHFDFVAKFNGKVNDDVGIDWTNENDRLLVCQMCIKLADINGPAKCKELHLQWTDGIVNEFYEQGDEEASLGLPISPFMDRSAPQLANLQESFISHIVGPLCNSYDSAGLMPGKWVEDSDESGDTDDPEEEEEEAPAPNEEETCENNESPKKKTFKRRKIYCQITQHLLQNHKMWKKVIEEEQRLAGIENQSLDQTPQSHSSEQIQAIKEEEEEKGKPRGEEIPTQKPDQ
Sequence of Cannabinoid receptor 1 (P21554 whole entry): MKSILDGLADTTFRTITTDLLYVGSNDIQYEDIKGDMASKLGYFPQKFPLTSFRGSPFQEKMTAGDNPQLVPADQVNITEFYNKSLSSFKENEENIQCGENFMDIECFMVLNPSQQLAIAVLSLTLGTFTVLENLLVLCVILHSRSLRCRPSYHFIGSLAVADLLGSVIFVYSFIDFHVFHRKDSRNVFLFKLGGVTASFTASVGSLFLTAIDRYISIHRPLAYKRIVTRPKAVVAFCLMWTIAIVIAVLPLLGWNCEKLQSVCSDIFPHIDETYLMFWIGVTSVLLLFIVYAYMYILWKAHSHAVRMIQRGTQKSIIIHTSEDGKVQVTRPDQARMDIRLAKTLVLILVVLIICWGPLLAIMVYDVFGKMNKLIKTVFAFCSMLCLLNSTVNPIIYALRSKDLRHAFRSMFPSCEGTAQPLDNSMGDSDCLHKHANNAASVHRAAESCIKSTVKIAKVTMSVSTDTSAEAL

Row | SMILES | AC50 (Cannabinoid receptor 1) [µM] | AC50 [1] [µM] | AC50 [2] [µM] | AC50 (Histamine H1 receptor) [µM] | AC50 (Glucocorticoid receptor) [µM] | AC50 (Endothelin-1 receptor) [µM] | AC50 (Progesterone receptor) [µM]
1 | CC(C)C(=O)OCC(=O)[C@@]12O[C@H](C3CCCCC3)O[C@@H]1C[C@H]1[C@@H]3CCC4=CC(=O)C=C[C@]4(C)[C@H]3[C@@H](O)C[C@@]12C [CICLESONIDE] | > 30 | > 10 | > 30 | > 10 | – | – | –
2 | CC(=O)OCC(=O)[C@@]12OC3(CCCC3)O[C@@H]1C[C@H]1[C@@H]3CCC4=CC(=O)C=C[C@]4(C)[C@@]3(F)[C@@H](O)C[C@@]12C [AMCINONIDE] | – | > 10 | > 30 | > 10 | 0.016 | – | –
3 | CCNC(C)Cc1cccc(C(F)(F)F)c1 (centres undefined) [FENFLURAMINE] | > 30 | > 10 | > 30 | – | > 30 | > 30 | –
4 | COc1ccccc1OCC(O)COC(N)=O (centres undefined) [METHOCARBAMOL] | – | > 10 | > 30 | – | > 30 | – | > 30
5 | CC/C=C\C/C=C\C/C=C\CCCCCCCC(=O)O [LINOLENIC ACID] | > 30 | > 30 | > 30 | > 30 | – | > 30 | –
6 | CC(Cc1ccccc1)NCCC(c1ccccc1)c1ccccc1 (centres undefined) [PRENYLAMINE] | – | > 10 | > 30 | 7.9 | > 30 | – | –
7 | CC(=O)O[C@@]12CO[C@@H]1C[C@H](O)[C@@]1(C)C(=O)[C@H](O)C3=C(C)[C@@H](OC(=O)[C@H](O)[C@@H](NC(=O)OC(C)(C)C)c4ccccc4)C[C@@](O)([C@@H](OC(=O)c4ccccc4)[C@H]21)C3(C)C [DOCETAXEL ANHYDROUS] | – | > 30 | > 30 | – | > 30 | – | > 30
8 | CN[C@@H](C)[C@H](O)c1ccccc1 [EPHEDRINE] | > 30 | > 10 | > 30 | > 10 | > 30 | > 30 | –
9 | CC(C)c1c(C(=O)Nc2ccccc2)c(-c2ccccc2)c(-c2ccc(F)cc2)n1CC[C@@H](O)C[C@@H](O)CC(=O)O [ATORVASTATIN] | > 30 | > 10 | > 10 | – | – | > 30 | –
10 | CCN1CCC[C@H]1CNC(=O)c1cc(S(N)(=O)=O)ccc1OC [LEVOSULPIRIDE] | > 30 | > 10 | > 30 | – | > 30 | – | –
11 | CN[C@@H]1[C@H](O)[C@H](NC)[C@H]2O[C@@]3(O)C(=O)C[C@@H](C)O[C@H]3O[C@@H]2[C@H]1O [SPECTINOMYCIN] | – | > 10 | > 30 | – | > 10 | – | > 10
12 | Cc1c(C(=O)Nc2ccc(N3C[C@@H](C)O[C@@H](C)C3)nc2)cccc1-c1ccc(OC(F)(F)F)cc1 [SONIDEGIB] | – | – | > 30 | > 10 | > 30 | > 30 | –
13 | COc1ccc2cccc(CCNC(C)=O)c2c1 [AGOMELATINE] | > 30 | > 10 | > 30 | > 10 | > 30 | > 30 | –
14 | COc1c(N2CCNC(C)C2)c(F)cc2c(=O)c(C(=O)O)cn(C3CC3)c12 (centres undefined) [GATIFLOXACIN] | – | > 10 | > 30 | – | > 10 | – | > 10
15 | COc1ccc(C(=O)N2CCN(c3ccc4c(c3)CCC(=O)N4)CC2)cc1OC [VESNARINONE] | > 30 | > 30 | 8.46 | > 30 | 8 | > 30 | –
16 | CCN(CC)CCOC(=O)c1ccc(N)cc1 [PROCAINE] | > 30 | 16 | > 10 | – | – | – | –
17 | C1COC(NC(C2CC2)C2CC2)=N1 [RILMENIDINE] | > 30 | > 10 | > 30 | > 10 | – | – | –
18 | CN1CCc2cccc3c2[C@H]1Cc1ccc(O)c(O)c1-3 [APOMORPHINE] | > 30 | > 10 | > 30 | 15 | > 30 | > 30 | –
19 | Cc1cc(-c2ccccc2)nnc1NCCN1CCOCC1 [MINAPRINE] | > 30 | > 10 | > 30 | > 10 | – | > 30 | –
20 | CN(C)C(=O)OC1N=C(c2ccccc2)c2cc(Cl)ccc2N(C)C1=O (centres undefined) [CAMAZEPAM] | > 30 | > 10 | > 30 | > 10 | > 30 | > 30 | –
21 | CN1CC(=O)N2[C@H](c3ccc4c(c3)OCO4)c3[nH]c4ccccc4c3C[C@@H]2C1=O | > 30 | > 10 | > 30 | > 10 | > 30 | – | –
22 | C[C@]12CCC(=O)C=C1CC[C@@H]1[C@@H]2CC[C@@]2(C)[C@H]1CC[C@]2(C)O [METHYLTESTOSTERONE] | > 30 | > 30 | > 30 | – | 0.44 | > 30 | –
23 | NC(=O)C[S+]([O-])C(c1ccccc1)c1ccccc1 (centres undefined) [MODAFINIL] | > 30 | > 10 | > 30 | – | > 30 | > 30 | –
24 | CCOc1cc(N)c([N+](=O)[O-])cc1C(=O)NC1CCN(CC2CC=CCC2)CC1 (centres undefined) [CINITAPRIDE] | > 30 | > 30 | > 30 | 27 | > 30 | > 30 | –
25 | O=C(O)CCCc1ccccc1 [PHENYLBUTANOIC ACID] | – | > 30 | > 30 | > 30 | > 30 | > 30 | –
26 | C#C[C@]1(O)CC[C@H]2[C@@H]3CCC4=CCCC[C@@H]4[C@H]3CC[C@@]21C [LYNESTRENOL] | > 30 | 0.3 | > 30 | > 30 | > 30 | > 30 | –
27 | NC(CO)C(=O)NNCc1ccc(O)c(O)c1O (centres undefined) [BENSERAZIDE] | > 30 | > 10 | > 30 | > 10 | – | > 30 | –
